In patent publication US20230121086A1, “RORgT INHIBITOR, PREPARATION METHOD THEREOF AND USE THEREOF” (SUNSHINE LAKE PHARMA CO., LTD., priority 2020, published 2023):

target: T1, RORγt (Homo sapiens, UniProt P51449); experiment: Fluorescence resonance energy transfer (FRET) test, inhibitory activity of RORγt; type: biochemical; conditions: FRET, B-RORγt LBD / Biotin-SRC1; read-out: IC50
T1 construct: […]
T1 sequence (P51449 269-508 limits assumed): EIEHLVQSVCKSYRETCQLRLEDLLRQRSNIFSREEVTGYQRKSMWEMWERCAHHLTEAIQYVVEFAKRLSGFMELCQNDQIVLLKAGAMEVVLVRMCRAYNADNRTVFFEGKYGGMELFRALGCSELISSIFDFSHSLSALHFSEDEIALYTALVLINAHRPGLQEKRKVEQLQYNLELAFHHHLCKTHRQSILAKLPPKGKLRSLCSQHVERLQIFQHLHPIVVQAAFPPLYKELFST

| Compound | IC50 [nM] |
| --- | --- |
| CCS(=O)(=O)c1ccc([C@H](COCC(=O)O)NC(=O)c2ccc(N3C[C@@H](Oc4ccc(-n5cccn5)cn4)C[C@H]3COC(F)F)nc2)cc1 [Example 175, 2-((R)-2-(6-((2S,4S)-4-((5-(1H-pyrazol-1-yl)pyridine-2-yl)oxy)-2-((difluoromethoxy)methyl)pyrrolidin-1-yl)nicotinylamino)-2-(4-(ethylsulfonyl)phenyl)ethoxy)acetic Acid] | 39.2 |
| CCS(=O)(=O)c1ccc([C@H](COC(N)=O)NC(=O)c2ccc(N3C[C@@H](Oc4ccc(OC(F)(F)F)cn4)C[C@H]3CF)nc2)cc1 [Example 176, (R)-2-(4-(Ethylsulfonyl)phenyl)-2-(6-((2S,4S)-2-(fluoromethyl)-4-((5-(trifluoromethoxy)pyridin-2-yl)oxy)pyrrolidin-1-yl)nicotinamido)ethyl carbamate] | 7.3 |
| CCS(=O)(=O)c1ccc([C@H](COC(N)=O)NC(=O)c2cnc(N3CCCC3c3cccc(F)c3)nc2)cc1 (stereo partly drawn) [Example 177, (2R)-2-(4-(Ethylsulfonyl)phenyl)-2-(2-(2-(3-fluorophenyl)pyrrolidin-1-yl)pyrimidine-5-carboxamido)ethyl carbamate] | 27.4 |
| CCS(=O)(=O)c1ccc([C@H](CC(=O)O)NC(=O)c2cnc(N3CCCC3c3cccc(F)c3)nc2)cc1 (stereo partly drawn) [Example 178, (3S)-3-(4-(Ethylsulfonyl)phenyl)-3-(2-(2-(3-fluorophenyl)pyrrolidin-1-yl)pyrimidine-5-carboxamido)propionic Acid] | 46.2 |
| N—((S)-2-cyano-1-(4-(ethylsulfonyl)phenyl)ethyl)-4-((2S,4S)-2-((difluoromethoxy)methyl)-4-(4-(4-fluoro-1H-pyrazol-1-yl)phenoxy)pyrrolidin-1-yl) benzamide [Example 161] | 10.4 |
| N—((S)-2-cyano-1-(4-(ethylsulfonyl)phenyl)ethyl)-4-((2S,5R)-5-(2,2-difluorobenzo[1,3]dioxol yl)-2-((difluoromethoxy)methyl)piperidin-1-yl)benzamide [Example 112-2] | 13 |

Results, then the compound that gave them:

| IC50 [nM] | Compound |
| --- | --- |
| 9.4 | CCS(=O)(=O)c1ccc([C@H](COC(N)=O)NC(=O)c2cnc(N3CC(F)(F)CC3c3cccc(F)c3)nc2)cc1 (stereo partly drawn) [Example 179, (2R)-2-(2-(4,4-difluoro-2-(3-fluorophenyl)pyrrolidin-1-yl)pyrimidine-5-carboxamido)-2-(4-(ethylsulfonyl)phenyl)ethyl carbamate] |
| 55.8 | NC(=O)OCC(C(=O)Nc1ccc(C(O)(C(F)(F)F)C(F)(F)F)cc1)c1ccc(S(=O)(=O)CC2CC2)cc1 (stereo not drawn) [Example 182, 2-(4-((cyclopropylmethyl)sulfonyl)phenyl)-3-((4-(1,1,1,3,3,3-hexafluoro hydroxypropan-2-yl)phenyl)amino)-3-oxopropyl carbamate] |
| 10 | CCS(=O)(=O)c1ccc([C@H](COC(N)=O)NC(=O)c2ccc(N3C[C@@H](Oc4ccc(Cl)cn4)C[C@H]3COC(F)F)nc2)cc1 [Example 183, (R)-2-(6-((2S,4S)-4-((5-chloropyridin-2-yl)oxy)-2-((difluoromethoxy)methyl)pyrrolidin-1-yl)nicotinamido)-2-(4-(ethylsulfonyl)phenyl)ethyl carbamate] |
